# Laboratory results taken from PubChem BioAssay AID2060886 (Molecular Pharmacology Branch, DTP, NCI, 2025).
# Tested on: 653999-131-R-J2-PDC complex spheroids, growth inhibition
# Assay: Anticancer human tumor 653999-131-R-J2-PDC patient-derived lung adenocarcinoma cell line growth inhibition [RAS]
# Conditions: for IC50: curve of first compound; for viability, T/C: stronger effect = lower value
# Method in brief: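 Agents were tested in combination matrices in half-log decrements from a top concentration at or near clinical Cmax (10 microM if undetermined). Targets were multi-cell spheroids of tumour lines plus HUVEC and MSC stromal cells.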
# 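Also: spheroids exposed to the agents for seven days before the readout.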
smiles,measurement,setting,value
CC1(O)CCCC1n1c(=O)c(C(F)F)cc2cnc(NC3CCN(S(C)(=O)=O)CC3)nc21 (centres undefined) + CCn1c(-c2cc(N3CCN(C)CC3)cnc2C(C)OC)c2c3cc(ccc31)-c1csc(n1)CC(NC(=O)C1CC1C)C(=O)N1CCCC(N1)C(=O)OCC(C)(C)C2,IC50,second compound 0.000949 µM,8400 nM
same,IC50,second compound 0.003 µM,57.9 nM
same,IC50,second compound 0.00949 µM,< 31.6 nM
same,IC50,second compound 0.03 µM,< 31.6 nM
same,IC50,second compound 0.0949 µM,< 31.6 nM
same,IC50,second compound 0.3 µM,< 31.6 nM
same,"viability, T/C","second compound 0.000949 µM, first compound 0.0316 µM",67.8%
same,"viability, T/C","second compound 0.000949 µM, first compound 0.1 µM",48.4%
same,"viability, T/C","second compound 0.000949 µM, first compound 0.316 µM",57.4%
same,"viability, T/C","second compound 0.000949 µM, first compound 1 µM",49%
same,"viability, T/C","second compound 0.000949 µM, first compound 3.16 µM",73%
same,"viability, T/C","second compound 0.000949 µM, first compound 10 µM",37.7%
same,"viability, T/C","second compound 0.003 µM, first compound 0.0316 µM",52.4%
same,"viability, T/C","second compound 0.003 µM, first compound 0.1 µM",49.5%
same,"viability, T/C","second compound 0.003 µM, first compound 0.316 µM",40.1%
same,"viability, T/C","second compound 0.003 µM, first compound 1 µM",49.9%
same,"viability, T/C","second compound 0.003 µM, first compound 3.16 µM",47.2%
same,"viability, T/C","second compound 0.003 µM, first compound 10 µM",38.5%
same,"viability, T/C","second compound 0.00949 µM, first compound 0.0316 µM",43%
same,"viability, T/C","second compound 0.00949 µM, first compound 0.1 µM",28.5%
same,"viability, T/C","second compound 0.00949 µM, first compound 0.316 µM",28.5%
same,"viability, T/C","second compound 0.00949 µM, first compound 1 µM",28.1%
same,"viability, T/C","second compound 0.00949 µM, first compound 3.16 µM",39%
same,"viability, T/C","second compound 0.00949 µM, first compound 10 µM",29.1%
same,"viability, T/C","second compound 0.03 µM, first compound 0.0316 µM",36.6%
same,"viability, T/C","second compound 0.03 µM, first compound 0.1 µM",23.9%
same,"viability, T/C","second compound 0.03 µM, first compound 0.316 µM",25.8%
same,"viability, T/C","second compound 0.03 µM, first compound 1 µM",24.9%
same,"viability, T/C","second compound 0.03 µM, first compound 3.16 µM",30.7%
same,"viability, T/C","second compound 0.03 µM, first compound 10 µM",20%
same,"viability, T/C","second compound 0.0949 µM, first compound 0.0316 µM",27.2%
same,"viability, T/C","second compound 0.0949 µM, first compound 0.1 µM",20.3%
same,"viability, T/C","second compound 0.0949 µM, first compound 0.316 µM",18.8%
same,"viability, T/C","second compound 0.0949 µM, first compound 1 µM",19.4%
same,"viability, T/C","second compound 0.0949 µM, first compound 3.16 µM",26.7%
same,"viability, T/C","second compound 0.0949 µM, first compound 10 µM",24.7%
same,"viability, T/C","second compound 0.3 µM, first compound 0.0316 µM",19.2%
same,"viability, T/C","second compound 0.3 µM, first compound 0.1 µM",18.5%
same,"viability, T/C","second compound 0.3 µM, first compound 0.316 µM",25.2%
same,"viability, T/C","second compound 0.3 µM, first compound 1 µM",20.8%
same,"viability, T/C","second compound 0.3 µM, first compound 3.16 µM",20.3%
same,"viability, T/C","second compound 0.3 µM, first compound 10 µM",21%
CCC(CC)c1cc(NC2CCC(N)C2)n2nccc2n1 (centres undefined) + C#Cc1c(F)ccc2cc(O)cc(-c3ncc4c(N5CC6CCC(C5)N6)nc(OCC56CCCN5CC(F)C6)nc4c3F)c12,IC50,second compound 0.0316 µM,2070 nM
same,IC50,second compound 0.1 µM,1810 nM
same,IC50,second compound 0.316 µM,1580 nM
same,IC50,second compound 1 µM,1290 nM
same,IC50,second compound 3.16 µM,31.6 nM
same,IC50,second compound 10 µM,< 31.6 nM
same,"viability, T/C","second compound 0.0316 µM, first compound 0.0316 µM",91.1%
same,"viability, T/C","second compound 0.0316 µM, first compound 0.1 µM",110%
same,"viability, T/C","second compound 0.0316 µM, first compound 0.316 µM",84.8%
same,"viability, T/C","second compound 0.0316 µM, first compound 1 µM",105%
same,"viability, T/C","second compound 0.0316 µM, first compound 3.16 µM",15.3%
same,"viability, T/C","second compound 0.0316 µM, first compound 10 µM",28.7%
same,"viability, T/C","second compound 0.1 µM, first compound 0.0316 µM",85.2%
same,"viability, T/C","second compound 0.1 µM, first compound 0.1 µM",101%
same,"viability, T/C","second compound 0.1 µM, first compound 0.316 µM",93.1%
same,"viability, T/C","second compound 0.1 µM, first compound 1 µM",80.6%
same,"viability, T/C","second compound 0.1 µM, first compound 3.16 µM",14.2%
same,"viability, T/C","second compound 0.1 µM, first compound 10 µM",28.3%
same,"viability, T/C","second compound 0.316 µM, first compound 0.0316 µM",71.7%
same,"viability, T/C","second compound 0.316 µM, first compound 0.1 µM",75.5%
same,"viability, T/C","second compound 0.316 µM, first compound 0.316 µM",75.4%
same,"viability, T/C","second compound 0.316 µM, first compound 1 µM",72.3%
same,"viability, T/C","second compound 0.316 µM, first compound 3.16 µM",14.8%
same,"viability, T/C","second compound 0.316 µM, first compound 10 µM",17.3%
same,"viability, T/C","second compound 1 µM, first compound 0.0316 µM",56.2%
same,"viability, T/C","second compound 1 µM, first compound 0.1 µM",57%
same,"viability, T/C","second compound 1 µM, first compound 0.316 µM",68.7%
same,"viability, T/C","second compound 1 µM, first compound 1 µM",59.2%
same,"viability, T/C","second compound 1 µM, first compound 3.16 µM",10.7%
same,"viability, T/C","second compound 1 µM, first compound 10 µM",25.3%
same,"viability, T/C","second compound 3.16 µM, first compound 0.0316 µM",47.2%
same,"viability, T/C","second compound 3.16 µM, first compound 0.1 µM",45%
same,"viability, T/C","second compound 3.16 µM, first compound 0.316 µM",49.3%
same,"viability, T/C","second compound 3.16 µM, first compound 1 µM",39.4%
same,"viability, T/C","second compound 3.16 µM, first compound 3.16 µM",16%
same,"viability, T/C","second compound 3.16 µM, first compound 10 µM",27.7%
same,"viability, T/C","second compound 10 µM, first compound 0.0316 µM",36.2%
same,"viability, T/C","second compound 10 µM, first compound 0.1 µM",33.5%
same,"viability, T/C","second compound 10 µM, first compound 0.316 µM",20.9%
same,"viability, T/C","second compound 10 µM, first compound 1 µM",31.6%
same,"viability, T/C","second compound 10 µM, first compound 3.16 µM",9.65%
same,"viability, T/C","second compound 10 µM, first compound 10 µM",13.1%
